{
  "source": "patent US8710097B2",
  "about": "“Flavonoid dimers and methods of making and using such” (The Hong Kong Polytechnic University, priority 2006, dated 2014)",
  "key": {"MDA435/LCC6 MDR cells": {"system": "MDA435/LCC6 MDR cells", "test": "cells"}, "[1]": {"system": "wild type L. donovani LdAG83 promastigotes", "test": "Leishmania cell viability (MTS) assay", "type": "cell-based, Leishmania donovani"}, "Ld2001 amastigotes": {"system": "Ld2001 amastigotes", "test": "Total antimony (SSG) accumulation assay using ICP-MS", "type": "cell-based, Leishmania donovani", "details": "3 hr", "experimental": "(§1) Amastigotes of L. donovani was prepared by spinning down 50 mL 4-day-old promastigotes (late log phase), and transferred to an axenic medium containing M199 Medium (Gibco), 0.5% Trypto casein soya, 3 mM L-cysteine, 15 mM D-glucose, 5 mM L-glutamine, 4 mM NaHCO3, 25 mM HEPES, 0.01 mM bathocuproine-disulfonic acid and 0.023 mM Hemin. Cells were then incubated at 37° C. for 24 hr. Amastigotes became ovoid in shape and were ready for drug accumulation assay.\n(§2) The effect of flavonoid dimers on accumulation of antimony sodium stibogluconate (SSG) was investigated. Amastigotes are more susceptible to SSG and therefore accumulate more SSG as compared to promastigotes. Therefore, amastigotes were chosen for studying the Sb accumulation assay. […] After 3 hour incubation, the parasites were washed thrice with cold PBS, pH 7.4. The cell pellet was dissolved in 200 μL concentrated nitric acid for 24 hr at room temperature. The sample was diluted to 3 mL with distilled water, resulting in a final concentration of about 5 ppb of total Sb solution. It was then injected to ICP-MS (Perkin-Elmer) for quantitation. Antimony was measured at its m/z ratios of 121 and 123 with indium (In, m/z=115) as an internal standard. All chemicals used for the pretreatment of the samples were of at least analytical grade and the distilled water used directly as received without further purification."}, "Ld39 amastigotes": {"system": "Ld39 amastigotes", "test": "Total antimony (SSG) accumulation assay using ICP-MS", "type": "cell-based, Leishmania donovani", "details": "3 hr", "experimental": "as §1, §2"}, "LdAG83 amastigotes": {"system": "LdAG83 amastigotes", "test": "Total antimony (SSG) accumulation assay using ICP-MS", "type": "cell-based, Leishmania donovani", "details": "9d 30 μM or 60 μM", "experimental": "as §1, §2"}, "[2]": {"details": "MDA435/LCC6 MDR, 5 μM dimer, FIG. 5"}},
  "data": [
    {"smiles": "O=c1cc(-c2ccc(OCCOCCOCCOCCOc3ccc(-c4cc(=O)c5c(O)cc(O)cc5o4)cc3)cc2)oc2cc(O)cc(O)c12", "note": "[Compound 9d, 1,13-Bis[4′-((5,7-dihydroxy)-4H-chromen-4-on-2-yl)phenyl]-1,4,7,10,13-pentaoxamidecane]", "values": [
      {"measurement": "RF, daunorubicin (IC50 without modulator / IC50 with modulator)", "setting": "MDA435/LCC6 MDR cells; LCC6 MDR, daunorubicin + 5 μM 9d", "result": 7.6},
      {"measurement": "RF, doxorubicin (IC50 without modulator / IC50 with modulator)", "setting": "MDA435/LCC6 MDR cells; LCC6 MDR, doxorubicin + 5 μM 9d or VP", "result": 9},
      {"measurement": "RF, mitoxantrone (IC50 without modulator / IC50 with modulator)", "setting": "MDA435/LCC6 MDR cells; LCC6 MDR, mitoxantrone + 5 μM 9d", "result": 2.2},
      {"measurement": "RF, taxol (IC50 without modulator / IC50 with modulator)", "setting": "MDA435/LCC6 MDR cells; LCC6 MDR, taxol + 5 μM 9d or VP", "result": 22},
      {"measurement": "RF, vinblastine (IC50 without modulator / IC50 with modulator)", "setting": "MDA435/LCC6 MDR cells; LCC6 MDR, vinblastine + 5 μM 9d or VP", "result": 10},
      {"measurement": "RF, vincristine (IC50 without modulator / IC50 with modulator)", "setting": "MDA435/LCC6 MDR cells; LCC6 MDR, vincristine + 5 μM 9d", "result": 41},
      {"measurement": "reversal of resistance to vinblastine, taxol, doxorubicin, vincristine, daunorubicin", "setting": "MDA435/LCC6 MDR cells; MDA435/LCC6 MDR, 5 μM 9d, FIG. 6A to 6E", "result": "to a level close to the parental"},
      {"measurement": "effect on mitoxantrone resistance", "setting": "MDA435/LCC6 MDR cells; MDA435/LCC6 MDR, 5 μM 9d, FIG. 6F", "result": "No effect"},
      {"measurement": "IC60 of doxorubicin with modulator", "setting": "MDA435/LCC6 MDR cells; [2]", "result": 0.73, "unit": "µM"},
      {"measurement": "reduction of IC60 of doxorubicin, RF", "setting": "MDA435/LCC6 MDR cells; [2]", "result": "about 6 RF"},
      {"measurement": "concentration reaching the plateau of taxol reversing activity", "setting": "MDA435/LCC6 MDR cells; MDA435/LCC6 MDR, FIG. 3B", "result": 5, "unit": "µM"},
      {"measurement": "modulating effect on SSG sensitivity", "setting": "[1]; LdAG83, up to 6 μM, FIG. 17C", "result": "did not have any modulating effect"},
      {"measurement": "modulatory effect on SSG sensitivity", "setting": "[1]; SSG-sensitive wild type LdAG83, FIG. 14D", "result": "no modulatory effect"},
      {"measurement": "IC50", "setting": "[1]; cytotoxicity of compound alone, 72 hrs, read-out: IC50(μM) of synthetic flavonoid, LdAG83", "result": "7 ± 0.4", "unit": "µM"},
      {"measurement": "SSG accumulation, % of that of LdAG83", "setting": "Ld2001 amastigotes; 30 μM 9d", "result": 83, "unit": "%"},
      {"measurement": "SSG accumulation, % of that of LdAG83", "setting": "Ld2001 amastigotes; 60 μM 9d", "result": 69, "unit": "%"},
      {"measurement": "SSG accumulation, % of that of LdAG83", "setting": "Ld39 amastigotes; 30 μM 9d", "result": 74, "unit": "%"},
      {"measurement": "SSG accumulation, % of that of LdAG83", "setting": "Ld39 amastigotes; 60 μM 9d", "result": 90, "unit": "%"},
      {"measurement": "accumulation of SSG versus cells without treatment", "setting": "LdAG83 amastigotes", "result": "did not significantly differ"}
    ]}
  ]
}
